# According to patent US20100092402A1, “TREATMENT OF RESPIRATORY DISEASE” (Mucokinetica Ltd., priority 2007, published 2010):
# Read-outs that look alike come from different tables or passages of the source.
# Columns and labels:
# [1] = tested on: cortical collecting duct of the rabbit kidney; settings: perfused; Muto et al. 1994; cited from earlier work
# [2] = target: T1, epithelial amiloride-sensitive sodium channel (ENaC) (Homo sapiens, UniProt P37088+P51168+P51170); assay type: cell-based; settings: 1 μM or 100 μM, 90 min
# T1 sequence (P37088 1-669): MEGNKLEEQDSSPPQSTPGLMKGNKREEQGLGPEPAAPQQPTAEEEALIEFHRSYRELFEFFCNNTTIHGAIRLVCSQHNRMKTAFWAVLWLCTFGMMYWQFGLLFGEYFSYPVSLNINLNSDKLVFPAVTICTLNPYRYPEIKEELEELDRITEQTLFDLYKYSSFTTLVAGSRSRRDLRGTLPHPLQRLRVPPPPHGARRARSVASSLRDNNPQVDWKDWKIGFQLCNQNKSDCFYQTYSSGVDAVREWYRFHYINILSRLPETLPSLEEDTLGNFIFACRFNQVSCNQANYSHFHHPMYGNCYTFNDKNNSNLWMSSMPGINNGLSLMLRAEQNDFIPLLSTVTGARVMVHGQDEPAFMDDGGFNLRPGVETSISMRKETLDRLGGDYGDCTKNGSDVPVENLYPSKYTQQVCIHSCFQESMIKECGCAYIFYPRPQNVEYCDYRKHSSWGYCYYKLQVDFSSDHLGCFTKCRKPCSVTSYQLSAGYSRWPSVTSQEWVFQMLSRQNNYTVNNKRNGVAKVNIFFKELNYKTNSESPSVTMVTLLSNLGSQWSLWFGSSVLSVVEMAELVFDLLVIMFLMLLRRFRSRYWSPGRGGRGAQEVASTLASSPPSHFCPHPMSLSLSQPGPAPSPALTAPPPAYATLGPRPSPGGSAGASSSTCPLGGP
# T1 sequence (P51168 1-640): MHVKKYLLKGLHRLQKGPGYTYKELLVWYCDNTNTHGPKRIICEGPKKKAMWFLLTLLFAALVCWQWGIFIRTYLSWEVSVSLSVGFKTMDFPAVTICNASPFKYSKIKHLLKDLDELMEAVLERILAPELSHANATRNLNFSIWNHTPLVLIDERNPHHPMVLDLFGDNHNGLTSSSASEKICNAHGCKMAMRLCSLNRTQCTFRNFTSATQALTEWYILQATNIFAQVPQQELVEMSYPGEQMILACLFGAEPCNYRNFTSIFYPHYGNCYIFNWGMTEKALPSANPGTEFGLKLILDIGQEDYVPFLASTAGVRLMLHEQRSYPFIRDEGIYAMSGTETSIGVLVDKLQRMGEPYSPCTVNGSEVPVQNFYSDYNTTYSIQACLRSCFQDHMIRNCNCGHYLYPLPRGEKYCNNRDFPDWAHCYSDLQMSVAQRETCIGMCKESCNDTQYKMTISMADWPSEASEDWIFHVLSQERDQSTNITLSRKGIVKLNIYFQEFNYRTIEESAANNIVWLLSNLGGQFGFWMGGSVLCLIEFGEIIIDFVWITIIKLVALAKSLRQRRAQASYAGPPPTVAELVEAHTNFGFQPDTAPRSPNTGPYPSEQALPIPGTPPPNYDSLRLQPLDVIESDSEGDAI
# T1 sequence (P51170 1-649): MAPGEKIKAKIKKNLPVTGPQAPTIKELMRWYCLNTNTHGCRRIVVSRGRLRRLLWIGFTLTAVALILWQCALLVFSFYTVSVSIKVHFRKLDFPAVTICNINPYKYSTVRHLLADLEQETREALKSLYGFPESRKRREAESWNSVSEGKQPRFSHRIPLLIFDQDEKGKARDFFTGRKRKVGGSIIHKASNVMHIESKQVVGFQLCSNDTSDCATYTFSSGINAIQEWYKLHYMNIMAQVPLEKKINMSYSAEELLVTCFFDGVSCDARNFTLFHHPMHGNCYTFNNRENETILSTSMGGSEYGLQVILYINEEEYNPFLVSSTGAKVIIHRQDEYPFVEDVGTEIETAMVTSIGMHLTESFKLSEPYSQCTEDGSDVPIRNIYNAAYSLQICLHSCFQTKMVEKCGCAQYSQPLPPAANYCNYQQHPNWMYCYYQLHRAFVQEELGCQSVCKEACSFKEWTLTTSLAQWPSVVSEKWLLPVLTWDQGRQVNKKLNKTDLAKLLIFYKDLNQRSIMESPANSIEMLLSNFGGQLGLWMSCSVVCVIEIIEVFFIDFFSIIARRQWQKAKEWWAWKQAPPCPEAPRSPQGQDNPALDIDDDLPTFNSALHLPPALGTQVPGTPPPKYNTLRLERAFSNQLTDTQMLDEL
# Method: (§1) Human bronchial epithelial (HBE) cells were purchased from Cambrex Bioscience Ltd, UK., and were stored frozen in liquid nitrogen until required for use.
# (§2) HBE cells were amplified by growing in secondary culture according to the suppliers' instructions. Cells were seeded at densities of between 3,000 to 4,000/cm^2 in plastic T-25 culture flasks in bronchial epithelial cell growth medium (BEGM) prepared from bronchial epithelial basal medium (BEBM, Cambrex, UK) supplemented with bovine pituitary extract, hydrocortisone, human epidermal growth factor, epinephrine, transferrin, insulin, retinoic acid, triiodothyronine, gentamicin, and amphotericin B. Cultures were maintained at 37° C. in 5% CO2 in a humidified incubator. Medium was changed every 1 to 3 days until cells were approximately 90% confluent. Cells were then passaged with trypsin EDTA according to the suppliers' instructions, and either used for further cell cultures, or cryopreserved in liquid nitrogen in BEGM containing 10% foetal bovine serum and 10% DMSO.
# (§3) HBE cells were prepared for electrophysiology studies by growing as tertiary cultures on Snapwell (Corning) 0.4μ clear polyester membrane inserts 1.2 cm^2 coated with collagen IV (Sigma). Cells were seeded at approximately 10^5/cm^2 in 0.5 ml 1:1 DMEM (Cambrex, UK) BEGM containing bovine pituitary extract (50 μg/ml), hydrocortisone (0.5 μg/ml), human epidermal growth factor (0.5 ng/ml), epinephrine (0.5 μg/ml), transferrin (10 μg/ml), insulin (5 μg/ml), retinoic acid (50 nM), and gentamicin (50 μg/ml) (Danahay medium; Danahay et al. 2002). Snapwell inserts were mounted in 6-well plates with 3 ml Danahay medium in the wells, and grown at 37° C. in 5% CO2 in a humidified incubator. Medium was changed every 1 to 3 days. An apical air-liquid interface (ALI) was established as the cells achieved confluence (3 to 6 days) by removal of medium from the centre of the insert. Confluent differentiated bronchial epithelial cells were used for electrophysiology studies at between 15 and 29 days after establishing ALI.
# (§4) Differentiated HBE cells grown to confluence at an air-liquid interface for 15 to 29 days were used to study substances for ability to achieve long duration down regulation of the epithelial amiloride-sensitive sodium channel (ENaC).
# (§5) Step 1: Treatment with substance. For each group of cells treated with a substance, 30 μl of 100 times final concentration of substance was added to the 3 ml basolateral culture medium, mixed and 150 μl of the resultant basolateral fluid was transferred to the apical surface for 5 min. For non-treatment control groups of basolateral fluid with no added substance was transferred to the apical surface. After 5 min. equilibration the excess apical fluid was then transferred back to the basolateral side of the culture well.
# (§6) Step 2: Variable period of incubation with the substance. Dependent on the individual experiment the cells were returned to the 37° C. incubator for periods of 0 min. to 120 min.
# (§7) Step 3: Period of substance washout with fresh culture medium. For experiments to study the duration of a substance response the HBE cells on Snapwell inserts were washed with fresh culture medium (no added substance) at 37° C. and placed in fresh 6-well plates containing 3 ml fresh culture medium (no added substance) on the basolateral side. […] Step 3 was omitted in studies where the duration of the substance response was not investigated.
# (§8) Step 4: Wash with Krebs-Ringer buffer and assembly in Ussing chambers. The Snapwell insert cultures of HBE cells were removed from the 6-well plates and washed with excess Krebs-Ringer buffer (120 mM-NaCl, 25 mM-NaHCO3, 3.3 mM-KH2PO4, 0.8 mM-K2HPO4, 1.2 mM-CaCl2, 1.2 mM-MgCl2, 10 mM-glucose) pH7.4 at 37° C. The inserts were then mounted in Ussing chambers (Snapwell diffusion chambers, Costar UK Ltd.). Each side of the chamber was filled with 5 ml Krebs-Ringer buffer and gassed continuously with 95% O2/5% CO2 at 37° C. […]
# [3] = tested on: amiloride-sensitive (sodium-dependent) component of nasal PD; experiment: Nasal PD measurement during perfusion of human nasal epithelium; assay type: in vivo; settings: perfusion with 10^−5 M-amiloride
# Method: The method of measurement of nasal PD was an adaptation of that described by Standaert et al. (2004).
# Ringer/HEPES buffer solution was prepared containing 148 mM-NaCl, 4.05 mM-KCl, 1.2 mM-CaCl2, 1.2 mM-MgCl2, 2.4 mM-K2HPO4, 0.4 mM-KH2PO4, 10 mM-HEPES, and adjusted to pH 7.4. Low chloride Ringer/HEPES buffer solution was prepared by replacing NaCl with 148 mM-Na gluconate in the Ringer solution components.
# Agar electrodes were prepared with 3.7% agarose dissolved in Ringer/HEPES buffer pH 7.4. The reference electrode was placed and taped in contact with a small area on the forearm where the epidermis had been removed by gentle abrasion. A dual lumen nasal recording electrode was prepared using a lm length of soft plastic tubing 2.4 mm diameter, into which 1 mm diameter polythene tubing was inserted through the wall and along the lumen for 15 cm from one end. The 2.4 mm diameter tubing was filled with 3.7% agarose dissolved in Ringer/HEPES buffer pH 7.4. The 1 mm diameter tubing was used for perfusion of buffer solutions and drugs to the nasal epithelium. The ends of the agar electrodes were each placed in contact with a calomel half-cell in 3 M-KCl solution. Voltages were measured by connecting the calomel electrodes to a high impedance voltmeter (Keithley 617 programmable electrometer). Output from the voltmeter was recorded by connection to a Biopac MP100 data aquisition unit and PC running Acqknowledge III data acquisition software.
# Nasal PD was recorded via the recording electrode placed in contact with the nasal epithelium approximately 4 cm inside the nostril. The nasal epithelium was perfused according to the following schedule and nasal PD was recorded continuously.
# 1. Ringer/HEPES buffer was perfused at 0.5 ml/min for 5 min, and starting baseline PD was recorded.
# 2. Perfusion was then switched to low chloride Ringer/HEPES buffer pH 7.4 for 30 min during which time initial hyperpolarisation of the epithelium occurred.
# 3. The nasal epithelium was then perfused with 10^−5 M-amiloride in low chloride Ringer/HEPES buffer pH 7.4 for 10 min. Measurement of the amiloride-sensitive (sodium-dependent) component of nasal PD was then made by measuring the difference between the average PD recorded over the 2 min before perfusion with amiloride and the average PD recorded in the period 4 to 6 min after perfusion with amiloride.
# 4. Amiloride was washed away from the nasal epithelium by perfusion with low chloride Ringer/HEPES buffer pH 7.4 for 30 min.
# 5. Steps 3 and 4 were then repeated twice more.
# 6. The nasal epithelium was then perfused with 3 μM 6-amidino-2-napthyl 4-guanidinobenzoate in low chloride Ringer/HEPES buffer pH 7.4 for 60 min.
# 7. Steps 3 and 4 were then repeated a further twice, followed by either a period of administration of amiloride (3 experiments), or a final repetition of both steps 3 and 4 (1 experiment).
# Over the 5 h time course of each experiment nasal PD drifted and oscillated. […] Changes in nasal PD caused by perfusion of amiloride were calculated as the difference between the mean PD recorded in the 2 min period before perfusion with amiloride and the mean PD recorded in the plateau period 4 to 6 min after start of perfusion with amiloride. Within each experiment the change in nasal PD at each period of application of amiloride was expressed as a percentage of the maximum change observed in the experiment.
# nasal epithelium = experiment: Mucus host-defence responses during nasal perfusion; assay type: in vivo, human; settings: perfusion with 10^−5 M in low chloride Ringer/HEPES buffer
# Source text: Perfusion of the nasal epithelium with low chloride Ringer/HEPES buffer imposes a chemical gradient for chloride secretion, and therefore also provides a drive for fluid secretion.
# Mucus host-defence episodes were scored 1 to 3 on the basis of the number of features and the magnitude of the responses observed. FIG. 10 reports the score of the episodes recorded, and indicates the time of their occurrence in the perfusion protocol.
# [4] = target: T2, epithelial amiloride-sensitive sodium channel (ENaC) (Homo sapiens, UniProt P37088+P51168+P51170); assay type: cell-based
# T2 construct: Differentiated HBE cells grown to confluence at an air-liquid interface for 15 to 29 days were used; host or cells: primary human bronchial epithelial (HBE) cells, differentiated at air-liquid interface
# Method: as §1, §2, §3, §4, §5, §6, §7, §8
# ENaC = target: T3, ENaC (Homo sapiens, UniProt P37088+P51168+P51170); settings: same range as 50% to 70% of amiloride inhibition; Bridges et al. 2001; cited from earlier work
# T3 construct: Treatment of airway epithelial cells with BAY 39-9437 results in reduction of ENaC activity; host or cells: airway epithelial cells (Bridges et al 2001)
# T3 sequence (P37088 1-669): T1 sequence (P37088 1-669)
# T3 sequence (P51168 1-640): T1 sequence (P51168 1-640)
# T3 sequence (P51170 1-649): T1 sequence (P51170 1-649)
molecule,measurement,setting,value
"N=C(N)c1ccc2cc(O)ccc2c1 [AN, 6-amidino-2-naphthol]",minimum effective concentration,[1],10^−4 M
same,amiloride ΔIsc compared to control,"[2]; HBE 34 & 35 d, 28 & 29 d ALI (FIG. 8B)",not significantly different
N=C(N)NC(=O)c1nc(Cl)c(N)nc1N [amiloride],time at which partial depolarisation of nasal epithelium was observable,[3],≤ 2 min
same,mucus host-defence responses,nasal epithelium,stimulated episodes of mucus host-defence responses
same,ΔIsc (amiloride addition),"[4]; 10 μM amiloride apical, HBE cells 24 d in culture, 21 d ALI, FIG. 1",9.2 μAmp
same,time for short circuit current to fall to new plateau after application of amiloride,"[4]; 10 μM-amiloride, apical surface",≤ 2 min
"N=C(N)Nc1ccc(C(=O)O)cc1 [pGBA, p-guanidinobenzoic acid]",minimum effective concentration,[1],10^−5 M
same,amiloride ΔIsc compared to control,"[2]; HBE 22 d, 17 d ALI (FIG. 8A)",not significantly different
aprotinin,efficacy compared with high dose amiloride,ENaC,same range
